Results as given in patent US20060165672A1, “Fatigue reducing agent” (KANEKA CORPORATION, priority 2003, published 2006).

Legend:
[1] = Level of reduced coenzyme Q in the muscle after oral administration (HPLC, electrochemical detector); assay type: in vivo, male SD rats; details: for Intramuscular level of reduced coenzyme Q (in words): after administration
Method: (§1) Reduced coenzyme Q10 obtained in the Reference Example 1 (containing about 1% of oxidized coenzyme Q10) was dissolved in soybean oil solution (reduced coenzyme Q10/soybean oil solution=20 mg/ml) and orally administered to male SD rats (6 weeks of age) at a dose of 100 mg/kg of reduced coenzyme Q10 (containing about 1% of oxidized coenzyme Q10), once a day for 5 days. Five days later, the muscles of the femoral region were collected, and coenzyme Q level in the muscle was measured. The measurement of the coenzyme Q level in the muscle was performed using HPLC. The harvested rat muscle (0.2 g) was homogenized after the addition of coenzyme Q7 (0.003 mg), ethanol (1 ml), distilled water (1 ml) and ferric chloride (0.01%), and then hexane (3 ml) was added. Coenzyme Q10 was extracted from the homogenate after shaking. After repeating this extraction operation twice, the extract was brought to dryness by evaporating hexane out, re-dissolved in 0.25 ml ethanol and injected to HPLC. HPLC condition is as follows; column: YMC-Pack (ODS-A303), detection wavelength: 275 nm, mobile phase: methanol (88%), hexane (12%), flow rate: 1 ml/min. The measurement of the ratio of reduced coenzyme Q10 and oxidized coenzyme Q10 in the muscle was carried out as follows. The harvested rat muscle (0.2 g) was homogenized after the addition of distilled water (0.2 ml) and ethanol (0.8 ml), and the homogenate was extracted by adding hexane (1.2 ml). After evaporating hexane under a stream of nitrogen, the extract was re-dissolved in ethanol (0.2 ml) and injected to HPLC. The condition of the HPLC operation was the same as the above except that the electrochemical detector was used. Soybean oil was administered to the control group.
The level of reduced coenzyme Q in the muscle was measured after administration of reduced coenzyme Q10 in a manner similar to (Example 1).
The level of reduced coenzyme Q in the muscle was measured after administration of oxidized coenzyme Q10 in a manner similar to (Comparative Example 1).

[2] = tested on: male SD rats (7 weeks of age); test: Tread mill test in young rats (maximum running time); assay type: in vivo, rat; details: for Maximum Running Time, Time prolonged: after minus before administration; for Maximum Running Time, After administration, relative to solvent control (100) / Maximum Running Time, Time prolonged, relative to solvent control (100) / Maximum Running Time, Before administration, relative to solvent control (100): value in parentheses; for Maximum Running Time, After administration: 2 hours after 300 mg/kg oral dose; for Maximum Running Time, Before administration: baseline before 300 mg/kg oral dose
Method: (§2) The anti-fatigue effect of reduced coenzyme Q10 (note that it contained about 1% of oxidized coenzyme Q10) was evaluated in male SD rats (7 weeks of age, n=10) using a tread mill. A rat was forced to run at a speed of 10 m/min on the tread mill machine (Type NK-73-4, Natsume Seisakusho Co., Ltd.). Then the speed was increased stepwise by 5 m/min in every 3 min, and the time when the rat could no longer run was measured (the maximum running time). The soybean oil solution of reduced coenzyme Q10 according to the Reference Example 1 (reduced coenzyme Q10/soybean oil solution=20 mg/ml) was prepared as a test substance and orally administered to rats as reduced coenzyme Q10 (note that it contained about 1% of oxidized coenzyme Q10) with a dose of 300 mg/kg. The maximum running times were measured before administration and 2 hours after administration and a prolongation of the maximum running time was calculated. Soybean oil was administered to the control group.
The anti-fatigue effect of oxidized coenzyme Q10 was evaluated in young rats in a manner similar to (Example 3).

[3] = Coenzyme Q level in the muscle after oral administration for 5 days (HPLC); assay type: in vivo, male SD rats
Method: as §1
Similarly oxidized coenzyme Q10 was administered and then the coenzyme Q level in the muscle was measured.

[4] = tested on: male SD rats (61 to 63 weeks of age); test: Tread mill test in aged rats (maximum running time, crossover); assay type: in vivo, rat; details: for Maximum running time of aged rats (in words) / Maximum Running Time, Time prolonged / Maximum Running Time, After administration, relative to solvent control (100): 300 mg/kg oral; for Maximum Running Time, Time prolonged: after minus before administration; for Maximum Running Time, After administration, relative to solvent control (100) / Maximum Running Time, Before administration, relative to solvent control (100): value in parentheses; for Maximum Running Time, After administration: after 300 mg/kg oral dose; for Maximum Running Time, After administration / Maximum Running Time, Before administration: crossover; for Maximum Running Time, Before administration: baseline before 300 mg/kg oral dose
Method: as §2
The anti-fatigue effect of reduced coenzyme Q10 (containing about 1% of oxidized coenzyme Q10) was evaluated in male SD rats (61 to 63 weeks of age, n=7) in a manner similar to (Example 3). This experiment was performed using a crossover method. […]

[5] = compared with oxidized coenzyme Q10, Japanese Patent Laid-Open No. 10-109933; cited from earlier work
[6] = femoral muscle, 100 mg/kg orally once a day for 5 days
[7] = value in parentheses, control group = 100
[8] = femoral muscle, 100 mg/kg orally once a day for 5 days, rats 6 weeks of age
[9] = value in parentheses, control group = 100, 100 mg/kg orally, 5 days

SMILES	Intramuscular level of reduced coenzyme Q (in words) [1]	Level of Reduced Coenzyme Q in Muscle, Q9 [1, 6]	Level of Reduced Coenzyme Q in Muscle, Total CoQ [1, 6]	Level of Reduced Coenzyme Q in Muscle, Q9, relative to control group (100) [1, 7]	Level of Reduced Coenzyme Q in Muscle, Total CoQ, relative to control group (100) [1, 7]	Maximum Running Time, Time prolonged ([2]; 300 mg/kg oral)	Maximum Running Time, After administration, relative to solvent control (100) ([2]; 300 mg/kg oral)	Maximum Running Time, Time prolonged, relative to solvent control (100) ([2]; 300 mg/kg oral)	Maximum Running Time, After administration [2]	Maximum Running Time, Before administration [2]	Maximum Running Time, Before administration, relative to solvent control (100) [2]	Level of Coenzyme Q in Muscle, Q9 [3, 8]	Level of Coenzyme Q in Muscle, Total CoQ [3, 8]	Level of Coenzyme Q in Muscle, Q9, relative to control group (100) [3, 9]	Level of Coenzyme Q in Muscle, Total CoQ, relative to control group (100) [3, 9]	Maximum running time of aged rats (in words) [4]	Maximum Running Time, Time prolonged [4]	Maximum Running Time, After administration, relative to solvent control (100) [4]	Maximum Running Time, After administration [4]	Maximum Running Time, Before administration [4]	further results
COC1=C(OC)C(=O)C(C/C=C(\C)CC/C=C(\C)CC/C=C(\C)CC/C=C(\C)CC/C=C(\C)CC/C=C(\C)CC/C=C(\C)CC/C=C(\C)CC/C=C(\C)CCC=C(C)C)=C(C)C1=O [Oxidized Coenzyme Q10, oxidized coenzyme Q10, reference compound]	decreased	2.34 ± 0.42 µg/g	2.45 ± 0.44 µg/g	(71*)	(68*)	190 ± 76 s	(108**)	(339**)	1733 ± 107 s	1543 ± 99 s	(100)	12.84 ± 2.03 µg/g	14.18 ± 2.18 µg/g	(133)	(137)	no prolongation effect	14 ± 43 s	(105)	875 ± 108 s	861 ± 123 s	Level of Reduced Coenzyme Q in Muscle, Q10, relative to control group (100) ([1]; rat, in vivo): (34**); Anti-fatigue effect in young rats (in words, compared with reduced coenzyme Q10) ([2]; 300 mg/kg oral): about the same as that of reduced coenzyme Q10; Maximum Running Time, Before administration, relative to solvent control (100) [4]: (100)
COc1c(O)c(C)c(C/C=C(\C)CC/C=C(\C)CC/C=C(\C)CC/C=C(\C)CC/C=C(\C)CC/C=C(\C)CC/C=C(\C)CC/C=C(\C)CC/C=C(\C)CCC=C(C)C)c(O)c1OC [Reduced Coenzyme Q10, reduced coenzyme Q10]	increased	5.32 ± 1.07 µg/g	5.71 ± 1.16 µg/g	(162*)	(159*)	196 ± 127 s	(108*)	(349**)	1719 ± 160 s	1523 ± 97 s	(99)	15.82 ± 2.89 µg/g	17.39 ± 3.09 µg/g	(164*)	(168*)	significantly prolonged	97 ± 28 s	(115)	958 ± 52 s	861 ± 123 s	Level of Reduced Coenzyme Q in Muscle, Q10 [1, 6]: 0.39 ± 0.24 µg/g; Level of Reduced Coenzyme Q in Muscle, Q10, relative to control group (100) [1, 7]: (122); Maximum running time of rats (in words) ([2]; 300 mg/kg oral): significantly prolonged; Endogenous coenzyme Q (in words) ([3]; after administration, endogenous = synthesized in vivo): increase of endogenous coenzyme Q; Level of Coenzyme Q in Muscle, Q10 [3, 8]: 1.57 ± 0.21 µg/g; Level of Coenzyme Q in Muscle, Q10, relative to control group (100) [3, 9]: (215**); Plasma level of coenzyme Q after oral administration (in words) [5]: raised the plasma level of coenzyme Q more than oral administration of oxidized coenzyme Q10; Maximum Running Time, Before administration, relative to solvent control (100) [4]: (100)
